Source: patent US20240165182A1, “METHOD OF EXTRACTION OF PROANTHOCYANIDINS COMPOUND FROM PINE BARK OF PINUS ROXBURGHII” (AMBE PHYTOEXTRACTS PVT. LTD., priority 2022, published 2024)

What was measured:
[1] = Total antioxidant capacity (TAC) assay, sulphuric acid/sodium phosphate/ammonium molybdate reagent; settings: concentration 1000 μg/ml, 90 minutes at 95° C.
Description: The assay was performed to evaluate the total antioxidant capacity of a Pinorox® i.e. Pine bark extract from Pinus roxburghii against the standard ascorbic acid for in-vitro study. Antioxidants are compounds that are capable of inhibiting the process of oxidation that occurs under the influence of atmospheric oxygen or reactive oxygen species. The antioxidants are employed for stabilizing polymeric products, petrochemicals, cosmetics and food stuff along with pharmaceuticals. Antioxidants are involved in defense mechanisms of an organism against the associated pathologies in order to attack the free radicals. The test is carried out to check the total antioxidant capacity of a pine bark extract in order to avoid nutritional loss. The total antioxidant capacity of Pinorox® i.e. Pine bark extract from Pinus roxburghii was found out to be 756.993±0.150 mM equivalent of the ascorbic acid having 1000±0.027 mM at 1000 μg/mL. Pine bark extract of 5.5 mg each/ascorbic acid were subjected to dissolve in 0.5 ml of DMSO (Dimethyl sulfoxide) in a separate container. 0.244 ml of 0.6 M sulphuric acid was added to a 15 ml of distilled water. […] The absorbance was recorded at […] via ELISA (enzyme-linked immunosorbent assay) reader and the values were recorded. The total activity of antioxidant was expressed as mM which is equivalent of ascorbic acid. […]

[2] = system: Human keratinocytes (HaCaT); assay: GSH modulation assay against hydrogen peroxide induced oxidative stress (GSH ELISA); type: cell-based; settings: H2O2 500 μm 3 hours, tested concentration 17.61 μg/ml (positive control)
Description: For conducting the analysis, 10 mg of Pine bark extract from Pinus roxburghii (Pinorox®) was dissolved in a DMSO (Dimethyl sulfoxide) solution. The volume of the test solution was made up using DMEM-HG (Dulbecco's Modified eagle Medium) and supplemented with 2% inactivated FBS (Fetal bovine serum) to acquire a solution with concentration of 10 mg/ml. The test solution was further proceeded with sterilization using syringe filtration. For carrying out the cytotoxic analysis, a two-fold serial dilution was prepared. The cell line of Human keratinocytes (HaCaT) was obtained from Addex Bio, USA and were cultured in DMEM-HG supplemented media with 10% inactivated fetal bovine serum (FBS), penicillin (100 IU/mL), streptomycin ([…]) and amphotericin B (5 μg/mL) in a wet atmosphere of 5% CO2 at a temperature of 37° C. until confluent. […] The samples were analyzed to estimate the levels of GSH using Elab science GSH ELISA kit by following the manufacturer's instruction. […]

## O=C1O[C@H]([C@@H](O)CO)C(O)=C1O [Ascorbic acid]
[1]
  TAC (total antioxidant capacity): 1000 ± 0.027 mM equivalent of ascorbic acid
[1]; listed as ascorbic acid
  TAC (total antioxidant capacity): 1000±0.027 mM equivalent of ascorbic acid
[2]
  % Increase in GSH level over hydrogen peroxide control: 95.59±0.03%
